Results: publication PMC10824666 (Nature Cancer, 2023)
Where two headings read alike, the source gives them in different places. Blank lines part the entries; values can stand above or below the compound they belong to.

Tests used:
Assay in all cases: biochemical
Parameters in all cases: Eurofins DiscoverX kinase panel, competitive binding assay at 1 uM, percent of DMSO control
Details in all cases: competitive binding, percent of DMSO control
MARK1 = MARK1 (Homo sapiens, UniProt Q9P0L2)
Protocol: (§1) Extended Data Fig. 3 In vitro characterization of potent and selective KIF18A inhibitors. a, KIF18A compounds (1 µM) were assessed across a panel of kinases (n = 96) by a competitive binding assay. Graph presented as percentage of control (POC); dashed line indicates POC value of 30 (n = 1 experiment). b, Tubulin polymerization analysis. Profile of KIF18A compounds (10 µM) relative to DMSO, paclitaxel (5 µM, tubulin stabilizer), or nocodazole (5 µM, tubulin destabilizer). Graphs presented as tubulin fluorescence signal at 440 nm expressed as arbitrary units (a.u.) versus time (min) with area-under-the-curve (AUC) values (n = 1 or 3 independent experiments). c, Mitotic spindle image analysis. […] Representative images were captured with x40 objective (scale bar = 10 µm) (n = 1 experiment). d-f, KIF18A compound effects on HeLa cells. d, Cells were treated for 96 h with DMSO or KIF18A compounds at the indicated concentrations. KIF18A compound concentration-response profiles presented as count relative to the percentage of DMSO control (POC) with count EC50 values (n = 2 independent experiments in duplicate). e, KIF18A protein localization in cells after treatment for 6 hours with DMSO or AM-1882 (0.05 µM). Cells stained to detect DNA, KIF18A, and centrin-3. Representative images of mitotic cells (n = 3 per group) were captured with x60 objective (scale bar = 5 µm) and graphs of line scan measurements were obtained for DNA, KIF18A, and centrin-3 channels expressed as fluorescence intensity (a.u.) versus distance (µm) (n = 1 experiment). f, Mitotic cell fate imaging analysis. HeLa Kyoto cells co-expressing α-tubulin-EGFP and H2B-mCherry proteins released from a G1S block in media containing DMSO or AM-1882 (0.2 µM). Analysis was performed on cells entering the first mitosis (n = 40 cells per group). Graph presented as time in mitosis (h) versus mitotic cell fate, either complete cell division (CCD) or death in mitosis (DiM). Classified cells exiting mitosis by the number of daughter cells and cell death in […] We screened a small-molecule library of diverse compounds for selective inhibitors of KIF18A MT-ATPase motor activity. Two compound hits were discovered that phenocopied the effects of KIF18A KD in cells; these hits are structurally distinct from the KIF18A inhibitor BTB-1 (refs. [27],[28]). […] However, the potency of the KIF18A inhibitors was unaffected by varying ATP and MT concentrations (Extended Data Fig. 2d). This supports our proposed model in which KIF18A inhibitors occupy an allosteric pocket formed by motor helices α4 and α6 close to the motor MT-binding surface. To screen for potential off-target interactions with essential mitotic kinases, three of the KIF18A compounds were profiled against a large panel of kinases. […] We next investigated whether our KIF18A inhibitors affected tubulin polymerization in vitro in the absence of the KIF18A motor. All four KIF18A compounds had tubulin-polymerization profiles similar to that of the DMSO control and distinct from those of the paclitaxel (MT stabilizer) and nocodazole (MT destabilizer) co

RPS6KB1 = RPS6KB1 (Homo sapiens, UniProt P23443)
Protocol: as §1

RSK 1 = biological target: T1, RSK 1 (Homo sapiens, UniProt Q15418)
T1 construct: gene RPS6KA1
Protocol: as §1

TSSK1B = biological target: T2, TSSK1B (Homo sapiens, UniProt Q9BXA7)
T2 sequence (Q9BXA7 1-367): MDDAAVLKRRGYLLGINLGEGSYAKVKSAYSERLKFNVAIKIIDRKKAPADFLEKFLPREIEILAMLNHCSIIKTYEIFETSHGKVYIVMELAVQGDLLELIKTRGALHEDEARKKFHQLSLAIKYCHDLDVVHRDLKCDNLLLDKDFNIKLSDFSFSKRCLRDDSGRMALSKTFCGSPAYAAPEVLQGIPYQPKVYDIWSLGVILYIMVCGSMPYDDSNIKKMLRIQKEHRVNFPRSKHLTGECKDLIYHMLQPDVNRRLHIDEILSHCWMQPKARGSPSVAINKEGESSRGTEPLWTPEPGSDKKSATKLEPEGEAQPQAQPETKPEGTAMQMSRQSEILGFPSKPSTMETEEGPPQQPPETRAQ
Protocol: as §1

DMPK = biological target: T3, DMPK (Homo sapiens, UniProt Q09013)
T3 sequence (Q09013 1-629): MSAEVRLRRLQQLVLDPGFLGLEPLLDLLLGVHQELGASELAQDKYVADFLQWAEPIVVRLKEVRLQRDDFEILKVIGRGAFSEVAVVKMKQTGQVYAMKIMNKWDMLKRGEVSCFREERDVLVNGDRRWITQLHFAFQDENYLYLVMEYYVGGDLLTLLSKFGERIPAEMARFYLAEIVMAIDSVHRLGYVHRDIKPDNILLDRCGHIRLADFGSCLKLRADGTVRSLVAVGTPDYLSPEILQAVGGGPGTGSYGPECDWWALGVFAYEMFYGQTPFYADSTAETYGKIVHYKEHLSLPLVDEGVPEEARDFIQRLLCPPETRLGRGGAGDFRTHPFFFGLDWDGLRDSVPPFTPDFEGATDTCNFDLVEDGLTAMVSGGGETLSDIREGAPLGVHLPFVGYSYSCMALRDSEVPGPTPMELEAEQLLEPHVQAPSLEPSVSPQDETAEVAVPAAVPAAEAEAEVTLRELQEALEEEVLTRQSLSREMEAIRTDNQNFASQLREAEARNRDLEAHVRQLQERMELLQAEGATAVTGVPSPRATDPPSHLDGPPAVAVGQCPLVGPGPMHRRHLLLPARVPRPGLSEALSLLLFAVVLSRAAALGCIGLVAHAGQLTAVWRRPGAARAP
Protocol: as §1

c-KIT = c-KIT (Homo sapiens, UniProt P10721)
Protocol: as §1

MSK1 = biological target: T4, MSK1 (Homo sapiens, UniProt O75582)
T4 construct: gene RPS6KA5
Protocol: as §1

[1] = read-out: Kinome Profiling performed by Eurofins DiscoverX / AM-1882, 1.0 µM / POC
[2] = read-out: Kinome Profiling performed by Eurofins DiscoverX / AM-5308, 1.0 µM / POC
[3] = read-out: Kinome Profiling performed by Eurofins DiscoverX / AM-0277, 1.0 µM / POC

Sequence of RPS6KB1 (P23443 whole entry): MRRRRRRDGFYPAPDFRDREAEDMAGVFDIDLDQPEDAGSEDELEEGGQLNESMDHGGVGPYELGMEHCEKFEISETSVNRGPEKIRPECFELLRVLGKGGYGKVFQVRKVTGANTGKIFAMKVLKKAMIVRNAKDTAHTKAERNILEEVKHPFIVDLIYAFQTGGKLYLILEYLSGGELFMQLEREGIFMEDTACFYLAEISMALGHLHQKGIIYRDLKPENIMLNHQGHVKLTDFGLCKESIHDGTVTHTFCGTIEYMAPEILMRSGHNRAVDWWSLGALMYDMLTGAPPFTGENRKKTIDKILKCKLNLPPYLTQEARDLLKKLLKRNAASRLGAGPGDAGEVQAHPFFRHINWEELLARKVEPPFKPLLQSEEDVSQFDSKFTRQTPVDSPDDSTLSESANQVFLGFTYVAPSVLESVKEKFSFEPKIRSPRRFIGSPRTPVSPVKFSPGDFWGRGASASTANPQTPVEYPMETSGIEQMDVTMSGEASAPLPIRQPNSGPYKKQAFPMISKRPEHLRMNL
T1 sequence (Q15418 whole entry): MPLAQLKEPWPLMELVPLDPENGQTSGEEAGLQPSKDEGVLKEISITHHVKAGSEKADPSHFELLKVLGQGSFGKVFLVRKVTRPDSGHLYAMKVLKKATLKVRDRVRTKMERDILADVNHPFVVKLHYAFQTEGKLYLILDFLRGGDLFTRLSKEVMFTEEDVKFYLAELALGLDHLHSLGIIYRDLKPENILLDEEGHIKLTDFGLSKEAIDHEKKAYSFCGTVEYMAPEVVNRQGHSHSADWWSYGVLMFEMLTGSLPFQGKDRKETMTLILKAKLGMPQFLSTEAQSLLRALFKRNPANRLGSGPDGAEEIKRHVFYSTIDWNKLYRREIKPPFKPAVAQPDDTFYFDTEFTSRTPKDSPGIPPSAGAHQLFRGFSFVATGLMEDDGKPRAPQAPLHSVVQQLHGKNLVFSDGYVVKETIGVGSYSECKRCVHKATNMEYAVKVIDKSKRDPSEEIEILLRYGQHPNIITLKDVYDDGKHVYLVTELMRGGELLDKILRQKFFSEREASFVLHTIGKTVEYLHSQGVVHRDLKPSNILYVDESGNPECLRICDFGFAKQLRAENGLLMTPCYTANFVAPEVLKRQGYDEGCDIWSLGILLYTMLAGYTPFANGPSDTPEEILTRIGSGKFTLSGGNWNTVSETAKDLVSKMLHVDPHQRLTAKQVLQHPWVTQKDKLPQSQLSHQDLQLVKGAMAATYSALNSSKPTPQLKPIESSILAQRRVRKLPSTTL
Sequence of c-KIT (P10721 whole entry): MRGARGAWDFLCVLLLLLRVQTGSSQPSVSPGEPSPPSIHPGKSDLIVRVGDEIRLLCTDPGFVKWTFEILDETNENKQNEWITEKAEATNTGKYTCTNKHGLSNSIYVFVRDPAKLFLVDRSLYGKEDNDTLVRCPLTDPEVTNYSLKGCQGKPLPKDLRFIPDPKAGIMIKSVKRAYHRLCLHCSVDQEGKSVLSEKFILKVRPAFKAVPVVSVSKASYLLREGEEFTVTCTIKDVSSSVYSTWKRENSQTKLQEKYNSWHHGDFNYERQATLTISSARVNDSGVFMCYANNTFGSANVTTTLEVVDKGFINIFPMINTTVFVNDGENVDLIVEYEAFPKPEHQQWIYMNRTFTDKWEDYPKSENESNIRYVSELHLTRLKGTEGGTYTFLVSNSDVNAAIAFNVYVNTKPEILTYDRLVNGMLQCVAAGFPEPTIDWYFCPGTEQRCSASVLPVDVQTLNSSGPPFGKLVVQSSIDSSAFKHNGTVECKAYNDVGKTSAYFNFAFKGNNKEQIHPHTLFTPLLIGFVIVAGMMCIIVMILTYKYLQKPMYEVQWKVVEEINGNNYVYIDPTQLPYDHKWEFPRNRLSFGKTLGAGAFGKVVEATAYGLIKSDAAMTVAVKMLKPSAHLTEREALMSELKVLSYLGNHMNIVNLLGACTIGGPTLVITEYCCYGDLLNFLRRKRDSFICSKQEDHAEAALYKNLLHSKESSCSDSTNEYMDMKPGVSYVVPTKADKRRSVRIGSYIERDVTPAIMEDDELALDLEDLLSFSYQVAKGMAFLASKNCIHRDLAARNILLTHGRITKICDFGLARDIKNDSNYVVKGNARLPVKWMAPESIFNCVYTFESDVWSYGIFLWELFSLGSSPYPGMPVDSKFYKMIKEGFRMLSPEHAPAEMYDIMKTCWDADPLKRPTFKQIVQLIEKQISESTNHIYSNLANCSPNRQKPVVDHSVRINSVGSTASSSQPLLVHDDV
Sequence of MARK1 (Q9P0L2 whole entry): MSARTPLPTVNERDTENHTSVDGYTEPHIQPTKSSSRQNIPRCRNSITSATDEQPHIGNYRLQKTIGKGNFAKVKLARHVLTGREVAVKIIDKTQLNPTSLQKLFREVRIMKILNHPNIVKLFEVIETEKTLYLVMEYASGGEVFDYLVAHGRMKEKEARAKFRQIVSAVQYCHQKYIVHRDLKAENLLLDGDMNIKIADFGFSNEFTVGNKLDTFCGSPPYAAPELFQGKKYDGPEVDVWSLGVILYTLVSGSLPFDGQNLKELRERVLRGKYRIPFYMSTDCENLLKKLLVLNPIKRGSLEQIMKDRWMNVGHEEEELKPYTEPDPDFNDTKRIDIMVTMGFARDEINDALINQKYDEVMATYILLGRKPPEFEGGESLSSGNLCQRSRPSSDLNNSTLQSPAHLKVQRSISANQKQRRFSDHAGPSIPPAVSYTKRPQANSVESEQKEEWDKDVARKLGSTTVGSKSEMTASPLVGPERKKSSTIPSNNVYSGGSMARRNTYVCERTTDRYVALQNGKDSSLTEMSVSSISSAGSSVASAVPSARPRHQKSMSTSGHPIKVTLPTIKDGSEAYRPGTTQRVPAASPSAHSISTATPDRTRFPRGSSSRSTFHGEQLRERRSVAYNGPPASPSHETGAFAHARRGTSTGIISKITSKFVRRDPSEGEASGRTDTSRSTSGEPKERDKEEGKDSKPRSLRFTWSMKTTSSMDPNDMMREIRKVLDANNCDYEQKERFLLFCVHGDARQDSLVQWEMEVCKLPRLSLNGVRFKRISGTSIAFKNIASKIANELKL
T4 sequence (O75582 whole entry): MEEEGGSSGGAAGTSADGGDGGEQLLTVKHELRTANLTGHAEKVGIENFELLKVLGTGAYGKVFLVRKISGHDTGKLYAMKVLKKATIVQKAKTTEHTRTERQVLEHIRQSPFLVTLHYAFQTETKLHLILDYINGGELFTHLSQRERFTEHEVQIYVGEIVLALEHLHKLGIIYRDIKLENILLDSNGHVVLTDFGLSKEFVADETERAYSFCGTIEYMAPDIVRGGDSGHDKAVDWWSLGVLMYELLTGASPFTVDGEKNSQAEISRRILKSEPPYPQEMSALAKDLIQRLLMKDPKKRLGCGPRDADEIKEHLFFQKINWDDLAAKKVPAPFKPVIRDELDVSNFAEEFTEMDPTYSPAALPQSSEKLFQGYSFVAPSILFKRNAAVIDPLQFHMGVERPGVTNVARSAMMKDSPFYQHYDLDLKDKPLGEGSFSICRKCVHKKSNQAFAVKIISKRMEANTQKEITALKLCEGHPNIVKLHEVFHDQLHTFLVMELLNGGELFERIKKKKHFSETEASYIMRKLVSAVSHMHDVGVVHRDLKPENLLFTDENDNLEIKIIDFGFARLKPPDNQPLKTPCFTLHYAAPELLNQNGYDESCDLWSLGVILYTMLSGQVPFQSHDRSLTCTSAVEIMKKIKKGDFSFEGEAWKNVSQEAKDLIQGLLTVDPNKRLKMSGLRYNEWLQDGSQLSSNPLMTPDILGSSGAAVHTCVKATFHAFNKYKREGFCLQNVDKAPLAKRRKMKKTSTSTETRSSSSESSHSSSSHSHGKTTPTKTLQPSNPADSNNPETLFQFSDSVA

- remaining activity at 1 µM (MARK1; [1]): 100%
- remaining activity at 1 µM (RPS6KB1; [1]): 61%
- remaining activity at 1 µM (RSK 1; [1]): 100%
- remaining activity at 1 µM (TSSK1B; [1]): 100%
- remaining activity at 1 µM (DMPK; [1]): 99.5%
- remaining activity at 1 µM (c-KIT; [1]): 100%
- remaining activity at 1 µM (MSK1; [1]): 100%
SMILES: CC(C)(C)NS(=O)(=O)c1cccc(NC(=O)c2ccc(S(=O)(=O)NC(C)(C)C)cc2N2CCC3(CC2)CC3)c1 [AM-1882]

- remaining activity at 1 µM (MARK1; [2]): 98.5%
- remaining activity at 1 µM (RPS6KB1; [2]): 94.5%
- remaining activity at 1 µM (RSK 1; [2]): 91.5%
- remaining activity at 1 µM (TSSK1B; [2]): 100%
- remaining activity at 1 µM (DMPK; [2]): 92%
- remaining activity at 1 µM (c-KIT; [2]): 100%
- remaining activity at 1 µM (MSK1; [2]): 91.5%
SMILES: C[C@@H]1CN(c2cccc(NC(=O)c3ccc(NS(=O)(=O)CCO)cc3N3CCC4(CC3)CC4)n2)CCO1 [AM-5308]

- remaining activity at 1 µM (MARK1; [3]): 96%
- remaining activity at 1 µM (RPS6KB1; [3]): 100%
- remaining activity at 1 µM (RSK 1; [3]): 100%
- remaining activity at 1 µM (TSSK1B; [3]): 84%
- remaining activity at 1 µM (DMPK; [3]): 100%
- remaining activity at 1 µM (c-KIT; [3]): 92%
- remaining activity at 1 µM (MSK1; [3]): 94%
SMILES: CC(C)(CO)Nc1ccc(C(=O)Nc2cccc(S(=O)(=O)C3CCCC3)c2)c(N2CCC3(CC2)CC3)n1 [AM-0277]
